Laboratory results published in article PMC13607727 (International Journal of Molecular Sciences, 2026).
Where a name gives a salt, the structure may show the parent alone.

Columns and labels:
Type in all cases: cell-based, SARS-CoV-2; human
[1] = biological target: Delta (B.1.617.2) S-RBD/hACE2 (Severe acute respiratory syndrome coronavirus 2, UniProt P0DTC2, L452R/T478K)
[2] = biological target: 2019-nCoV S-RBD/hACE2 (Severe acute respiratory syndrome coronavirus 2, UniProt P0DTC2)
[3] = biological target: Omicron (BA.5) S-RBD/hACE2 (Severe acute respiratory syndrome coronavirus 2, UniProt P0DTC2, D405N/E484A/F486V/G339D/K417N/L452R/N440K/N501Y/Q498R/R408S/S371F/S373P/S375F/S477N/T376A/T478K/Y505H)

Row | SMILES | Effect on S-RBD/hACE2 colocalisation [1] | Effect on S-RBD/hACE2 colocalisation [2] | Effect on S-RBD/hACE2 colocalisation [3]
1 | CC(OC(=O)OC1CCCCC1)OC(=O)C1=C(CSc2nnnn2CC[NH+](C)C)CSC2C(NC(=O)Cc3csc(N)n3)C(=O)N12 (stereo not drawn) [CTM-HCl, cefotiam hexetil hydrochloride] | showed similar effects against all tested strains | showed similar effects against all tested strains | showed similar effects against all tested strains
2 | CCCCCCCCC=CCCCCCCCC(=O)OCC(C[N+](C)(C)C)OC(=O)CCCCCCCC=CCCCCCCCC (stereo not drawn) [DOTAP, DOTAP chloride] | reduced colocalisation to all three S-RBD variants in a concentration-dependent manner | reduced colocalisation to all three S-RBD variants in a concentration-dependent manner | reduced colocalisation to all three S-RBD variants in a concentration-dependent manner
